In patent publication US20230091810A1, “FIRST-IN-CLASS OF SHMT2 AND MTHFD2 INHIBITORS AS ANTITUMOR AGENTS” (Duquesne University of the Holy Spirit, priority 2017, published 2023):

Tests used:
[1] = test system: H460 cells; assay: glycine/nucleoside protection of growth inhibition in H460 cells; assay type: cell-based, human
Method: We also tested the protective effects of AICA (320 µM) which is metabolized to AICAR (ZMP) (AICARFTase substrate), thus circumventing the GARFTase step in de novo purine biosynthesis (27) (see FIG. 1). […] Analogous results were obtained with HCT116 and MIA PaCa-2 tumor cells (see FIG. 14).
(§1) For proliferation assays of the HCT116, H460, and MIA PaCa2 tumor cell lines, the cells were plated in 96-well plates in an identical manner to the CHO experiments, except that the maximal drug concentration was increased to 10 µM. Glycine/nucleoside protection experiments in CHO and tumor cell lines were performed in folate- and glycine-free RPMI 1640/10% dialyzed fetal bovine serum supplemented with 25 nM leucovorin without additions, or in the presence of adenosine (60 µM), thymidine (10 µM), glycine (130 µM) and/or 5-aminoimidazole-4-carboxamide (AICA) (320 µM). Growth of metabolite-treated cells was normalized to controls treated with metabolites and vehicle (i.e., DMSO) both singly and in combination. Treatments with all metabolites were performed in parallel on the same plate for a given drug.

[2] = target: T1, SHMT2 (Homo sapiens, UniProt P34897); assay: in vitro inhibition of purified SHMT2, coupled SHMT2-MTHFD2 assay with NADH readout; details: purified N-terminally His-tagged enzyme; compounds as monoglutamates; * designates one experiment
T1 sequence (P34897 30-504): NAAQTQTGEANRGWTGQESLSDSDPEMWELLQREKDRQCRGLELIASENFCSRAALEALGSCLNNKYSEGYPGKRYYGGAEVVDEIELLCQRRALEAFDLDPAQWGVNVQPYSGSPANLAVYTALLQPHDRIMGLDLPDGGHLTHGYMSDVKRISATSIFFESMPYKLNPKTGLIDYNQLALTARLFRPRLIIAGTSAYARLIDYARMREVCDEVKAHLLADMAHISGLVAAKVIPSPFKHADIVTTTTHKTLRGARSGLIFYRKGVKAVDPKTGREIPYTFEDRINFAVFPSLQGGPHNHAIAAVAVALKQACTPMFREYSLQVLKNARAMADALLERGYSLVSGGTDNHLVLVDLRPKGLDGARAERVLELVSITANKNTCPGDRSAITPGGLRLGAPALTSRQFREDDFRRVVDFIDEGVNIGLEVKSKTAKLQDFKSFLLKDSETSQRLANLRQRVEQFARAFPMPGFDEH

[3] = test system: PC43-10 (RFC) (CHO); assay: proliferation assay, PC43-10 CHO cells expressing RFC only; assay type: cell-based, Chinese hamster; details: folate-/glycine-free RPMI1640 with 25 nM leucovorin; 96 h; drug 0-1000 nM; read-out: IC50s (SE) PC43-10 (RFC) (CHO)
Method: (§2) Proliferation assays were performed with engineered Chinese hamster ovary (CHO) cell lines R2 (transporter-null), PC43-10 (expresses RFC only), RT16 (FRα only), and R2/PCFT4 (PCFT only) cultured in folate-/glycine-free RPMI1640 supplemented with 25 nM leucovorin. Additional results are shown for HCT116 (colon tumor cells (CTC)), IGROV1 (epithelial ovarian cancer (EOC) cells), H460 (non-small cell lung cancer (NSCLC) cells), MIAPaCa-2 (pancreatic cancer (PaC) cells), and HPAC (PaC).
(§3) Cell culture and proliferation/protection assays. The HCT116 cell lines including the serine hydroxymethyltransferase (SHMT) 1, SHMT2, and methylene THF dehydrogenase 2 (MTHFD2) knockout (KO) cells were previously described (47,53). The H460 cell line was obtained from the American Type Culture Collection (Manassas, VA), whereas the MIA PaCa-2 cells were provided by Dr. Yubin Ge (Karmanos Cancer Institute). Cell lines were verified by STR analysis by Genetica DNA Laboratories (Burlington, NC). MTXRIIOua^R2-4 (i.e. R2) Chinese hamster ovary (CHO) cells were generously provided by Dr. Wayne Flintoff (University of Western Ontario) (54). From this parental R2 cell line, human RFC and PCFT were individually transfected to generate the isogenic CHO cell lines designated PC43-10 (RFC) and R2/PCFT4 (PCFT) (55-57). Human tumor cell lines were cultured in folate-free RPMI supplemented with 10% dialyzed fetal bovine serum (Sigma-Aldrich), 1% penicillin/streptomycin solution, 2 mM L-glutamine, and 25 nM leucovorin in a humidified atmosphere at 37° C. in the presence of 5% CO2 and 95% air. The CHO cell lines were cultured in alpha-minimal essential medium (alpha-MEM) supplemented with 10% bovine calf serum, 1% penicillin/streptomycin solution, and 2 mM L-glutamine. Additionally, the transfected CHO cell lines (i.e. R2/PCFT4 and PC43-10) were maintained under continuous selection with 1 mg/ml of G418.
For proliferation assays with the CHO cell lines, the cells were treated with drugs (0-1 µM) in a 96-well plate (2000 cells/well) in glycine-free, nucleoside-free folate-free RPMI supplemented with 10% dialyzed fetal bovine serum, 1% penicillin/streptomycin, 2 mM L-glutamine, and 25 nM leucovorin (final volume 200 µL) over a 96 h incubation period at 37° C. with 5% CO2. […] To quantify viable cells, the media was removed and plates were washed once with 100 µL Dulbecco’s Phosphate-Buffered Saline (PBS), after which 100 µL PBS and 20 µL Cell Titer-blue (Promega) were added. Relative cell numbers were proportional to the fluorescence measured with a fluorescence plate reader (590 nm emission, 560 nm excitation). Background fluorescence (cell-free wells treated with Cell Titer-blue) was subtracted and these corrected values were normalized to results for cells treated in an identical manner without drugs.

[4] = test system: RT16 (FR alpha) (CHO); assay: proliferation assay, RT16 CHO cells expressing FR alpha only; assay type: cell-based, Chinese hamster; details: folate-/glycine-free RPMI1640 with 25 nM leucovorin; 96 h; read-out: IC50s (SE) RT16 (FR alpha) (CHO)
Method: as §2
For proliferation assays with the CHO cell lines, the cells were treated with drugs (0-1 µM) in a 96-well plate (2000 cells/well) in glycine-free, nucleoside-free folate-free RPMI supplemented with 10% dialyzed fetal bovine serum, 1% penicillin/streptomycin, 2 mM L-glutamine, and 25 nM leucovorin (final volume 200 µL) over a 96 h incubation period at 37° C. with 5% CO2. The drugs were dissolved in DMSO; an equivalent amount of DMSO was added to the control (no addition) samples. To quantify viable cells, the media was removed and plates were washed once with 100 µL Dulbecco’s Phosphate-Buffered Saline (PBS), after which 100 µL PBS and 20 µL Cell Titer-blue (Promega) were added. Relative cell numbers were proportional to the fluorescence measured with a fluorescence plate reader (590 nm emission, 560 nm excitation). Background fluorescence (cell-free wells treated with Cell Titer-blue) was subtracted and these corrected values were normalized to results for cells treated in an identical manner without drugs.

[5] = test system: IGROV1 (EOC); assay: proliferation assay, IGROV1 epithelial ovarian cancer cells; assay type: cell-based, human; details: folate-/glycine-free RPMI1640 with 25 nM leucovorin; read-out: IC50s (SE) IGROV1 (EOC)
Method: as §2, §1

[6] = test system: MIA PaCa-2 (PaC); assay: proliferation assay, MIA PaCa-2 pancreatic cancer cells; assay type: cell-based, human; details: folate-/glycine-free RPMI1640 with 25 nM leucovorin; 96 h; read-out: IC50s (SE) MIA PaCa-2 (PaC)
Method: as §2, §3, §1

[7] = test system: HPAC (PaC); assay: proliferation assay, HPAC pancreatic cancer cells; assay type: cell-based, human; details: folate-/glycine-free RPMI1640 with 25 nM leucovorin; read-out: IC50s (SE) HPAC (PaC)
Method: as §2, §1

[8] = test system: human MIA PaCa-2 pancreatic adenocarcinoma xenografts; assay: in vivo efficacy trial with MIA PaCa-2 pancreatic cancer xenografts; set-up: species or system SCID mice
Method: Female ICR SCID mice (10 weeks old; 19 g average body weight) were implanted bilaterally with human MIA PaCa-2 tumors. […] The mice were weighed and tumors were measured with a caliper two-to-three times weekly; mice were sacrificed when the cumulative tumor burden reached 1500 mg. Tumor weights were estimated from two-dimensional measurements, where tumor mass (in mg) = (a x b^2)/2, and a and b are the tumor length and width in mm, respectively. The tumor masses from both tumors on each mouse were added together, and the total mass per mouse was used for calculations of anti-tumor activity. Quantitative end-points include: (i) tumor growth delay [T-C, where T is the median time in days required for the treatment group tumors to reach a predetermined size (e.g., 1000 mg), and C is the median time in days for the control group tumors to reach the same size; tumor-free survivors are excluded from these calculations]; and (ii) T/C (in percent) when treatment (T) and control (C) groups for the control groups reached 700 mg in size (exponential growth phase). The median value of each group was determined (including zeros). Mouse weights were monitored as a gauge of drug toxicity.
Female ICR SCID mice (10 weeks old; 19 g average body weight) were implanted bilaterally with human MIA PaCa-2 PaC tumors.
In vivo efficacy trial with MIA PaCa-2 pancreatic cancer xenografts. Methods for in vivo maintenance of MIA PaCa-2 tumor xenografts and drug efficacy evaluations are analogous to those previously described (58, 62-67). MIA PaCa-2 human pancreatic cancer cells (5 × 10^6 cells/flank) were bilaterally implanted subcutaneously with tumor fragments (30-60 mg) with a 12-gauge trocar in female […] SCID mice (NCI Animal Production Program). The mice were 10 weeks old on day 0 (tumor implant) with an average body weight of 19 g. For the efficacy trial, the mice were maintained on either a folate-deficient diet from Harlan-Teklad (TD.00434) starting 14 days before subcutaneous tumor implant to ensure serum folate levels would approximate those of humans. A separate cohort of mice was fed a folate-replete control diet from Lab Diet (5021). Mice were supplied with food and water ad libitum. Serum folate concentrations were monitored prior to tumor implant and post study by Lactobacillus casei bioassay (68). The mice in each group (folate-deficient and standard diet) were pooled before unselective distribution to the treatment and control groups. […] The drugs were dissolved in 5% ethanol (v/v), 1% Tween-80 (v/v), and 0.5% NaHCO3 and were administered intravenously (0.2 ml/injection). The mice were weighed and tumors were measured with a caliper two-to-three times weekly; mice were sacrificed when the cumulative tumor burden reached 1500 mg. Tumor weights were estimated from two-dimensional measurements, where tumor mass (in mg) = (a × b^2)/2, and a and b are the tumor length and width in mm, respectively. The tumor masses from both tumors on each mouse were added together, and the total mass per mouse was used for calculations of anti-tumor activity. Quantitative end-points include: (i) tumor growth delay [T-C, where T is the median time in days required for the treatment group tumors to reach a predetermined size (e.g., 1000 mg), and C is the median time in days for the control group tumors to reach the same size; tumor-free survivors are excluded from these calculations]; and (ii) T/C (in percent) when treatment (T) and control (C) groups for the control groups reached 700 mg in size (exponential growth phase). The median value of each group was determined (including zeros). Mouse weights were monitored as a gauge of drug toxicity.

[9] = IV, AGF291 Q6dx3 start d3, total 23.5 mg/kg, Gemcitabine Q4dx4 start d3, total 480 mg/kg

## Nc1nc2[nH]c(CCCc3ccc(C(=O)N[C@@H](CCC(=O)O)C(=O)O)s3)cc2c(=O)[nH]1 [AGF94, reference compound]
[1]; AICA 320 µM
  protection from growth inhibition by AICA: completely protective
[1]; adenosine 60 µM, up to 10 µM drug
  protection from growth inhibition by adenosine: fully protective
[1]; glycine 130 µM
  protection from growth inhibition by glycine: no effect
[2]
  Ki SHMT2: no inhibition

## Nc1nc2ccn(CCCc3ccc(C(=O)N[C@@H](CCC(=O)O)C(=O)O)c(F)c3)c2c(=O)[nH]1 [AGF359]
[3]
  IC50: 233 nM
[4]
  IC50: 525 nM
[5]
  IC50: 229 nM
[6]
  IC50: > 1000 nM
[7]
  IC50: 167 nM

## Nc1ccn([C@@H]2O[C@H](CO)[C@@H](O)C2(F)F)c(=O)n1 [Gemcitabine, reference compound]
[8]; [9]
  Mean Body Weight Loss (g/mouse): -2.4 g/mouse
  Percent Body Weight Loss: -12.2%
[8]; day 14, control cohort 1321 mg
  median tumor burden on day 14: 255 mg
[8]; day 16, IV, AGF291 total 23.5 mg/kg, Gemcitabine total 480 mg/kg
  Median Tumor Burden in mg on d16 (range): 445 (150-527) mg
[8]; day 52, mice tumor free/total
  Tumor Free on d52: 0/5
[8]; median T-C to reach 1000 mg, AGF291 total 23.5 mg/kg, Gemcitabine total 480 mg/kg
  Tumor Growth Delay (T-C): 7.5 days
[8]; median, IV, AGF291 total 23.5 mg/kg, Gemcitabine total 480 mg/kg
  Time to 1000 mg in days (range): 20 (19-21) days
[8]; nadir on day 17 for AGF291, day 6 for GEM, completely reversible after cessation of therapy
  weight loss (median nadir): 12%
[8]; treated/control median tumor burden, AGF291 7.75 mg/kg/inj Q6dx3, GEM 120 mg/kg/inj every 4 days, start day 3
  T/C%: 26%
